Data as given in patent US11096916B2, “Use of nicotinic acetylcholine receptor alpha 7 activators” (NOVARTIS AG, priority 2009, dated 2021).
pEC50: −log10 of the molar value.

Columns and labels:
[1] = biological target: T1, human neuronal nAChR α4β2 (Homo sapiens, UniProt P17787+P43681); test: similar functional assay in human epithelial cell line stably expressing human α4β2 subtype; format: cell-based; settings: α7-nAChR against α4β2-nAChR
T1 construct: expressed in transfected cells; host or cells: human epithelial cell line (named a human embryonic kidney cell line)
T1 sequence (P43681 29-627 limits assumed): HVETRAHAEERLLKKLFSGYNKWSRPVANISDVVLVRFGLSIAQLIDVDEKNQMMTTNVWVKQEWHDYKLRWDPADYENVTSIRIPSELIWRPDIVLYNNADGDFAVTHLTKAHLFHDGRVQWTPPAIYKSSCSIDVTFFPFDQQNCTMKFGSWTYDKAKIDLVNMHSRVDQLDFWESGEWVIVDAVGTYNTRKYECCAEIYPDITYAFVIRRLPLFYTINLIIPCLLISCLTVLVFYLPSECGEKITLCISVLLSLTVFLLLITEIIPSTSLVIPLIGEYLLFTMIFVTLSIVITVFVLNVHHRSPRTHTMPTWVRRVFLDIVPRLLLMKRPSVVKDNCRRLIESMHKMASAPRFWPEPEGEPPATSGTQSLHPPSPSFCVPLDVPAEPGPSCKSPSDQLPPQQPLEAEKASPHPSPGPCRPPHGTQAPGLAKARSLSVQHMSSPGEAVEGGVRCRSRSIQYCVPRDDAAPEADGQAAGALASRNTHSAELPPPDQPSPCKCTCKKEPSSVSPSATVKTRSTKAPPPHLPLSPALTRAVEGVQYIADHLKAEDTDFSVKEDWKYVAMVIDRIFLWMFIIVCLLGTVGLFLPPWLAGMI
T1 sequence (P17787 26-502): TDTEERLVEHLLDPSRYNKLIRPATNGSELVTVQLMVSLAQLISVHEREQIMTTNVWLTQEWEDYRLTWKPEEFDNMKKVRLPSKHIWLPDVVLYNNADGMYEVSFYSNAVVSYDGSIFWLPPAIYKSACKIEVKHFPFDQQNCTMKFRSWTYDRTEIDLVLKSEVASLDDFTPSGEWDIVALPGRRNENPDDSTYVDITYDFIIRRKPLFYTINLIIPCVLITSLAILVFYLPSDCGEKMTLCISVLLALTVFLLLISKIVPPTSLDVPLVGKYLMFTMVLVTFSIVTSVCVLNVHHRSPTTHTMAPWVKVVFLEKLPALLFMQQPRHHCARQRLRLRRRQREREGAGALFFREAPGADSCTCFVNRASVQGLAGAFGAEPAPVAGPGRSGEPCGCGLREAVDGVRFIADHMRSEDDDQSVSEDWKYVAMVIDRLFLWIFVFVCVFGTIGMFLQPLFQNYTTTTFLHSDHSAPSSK
Description: To assess the activity of the compound of the invention on the human neuronal nAChR α4β2, a similar functional assay is carried out using a human epithelial cell line stably expressing the human α4β2 subtype (Michelmore et al., Naunyn-Schmiedeberg's Arch. Pharmacol. (2002) 366, 235).

[2] = Oral bioavailability and brain penetration in mice; format: in vivo; settings: 30 μmol/kg p.o.
Description: Compounds were orally (30 μmol/kg) administered. Male mice (30-35 g, OF1/ICstrain) were sacrificed at indicated time points after oral administration. Trunk-blood was collected in EDTA-containing tubes and the brain was removed and immediately frozen on dry ice.
To 100 μl plasma 10 μl internal standard (1.0 μmol of a compound with solubility and ionization properties similar to test compounds) was added and extracted three times with 500 μl dichloromethane. The combined extracts were then dried under a stream of nitrogen and re-dissolved in 100 μl acetonitrile/water (70% acetonitrile). Brains were weighed and homogenized in water (1:5 w/v). Two 100 μl aliquots of each homogenate+10 μl of internal standard (same standard as used for the plasma samples) were extracted three times with 500 μl dichloromethane and further processed as the plasma samples. Samples were separated on Beckmann high-performance liquid chromatography equipment system with an autosampler (Gilson 233XL).
The limit of detection (LOD), defined as the lowest concentration of the extracted standard sample with a signal to noise ratio of ˜3.

mice = test: Social Recognition Test in mice; format: in vivo, mouse; settings: oral, familiar partner at 24 h vs time 0
Description: Social interactions between two experimental animals are influenced by their degree of familiarity: the better they know each other, the less time they spend on mutual scrutiny at each meeting. […] Memory enhancing agents (i.e. oxiracetam) facilitate learning to the extent that the previously met (familiar) partner is still remembered after 24 h, whereas in vehicle treated control animals the memory usually fades after less than 1 hour (Thor and Holloway, 1982) or after 2-3 hours.
Pairs consisting of one adult and one young mouse were assigned at random to the experimental and control groups. In each pair only the adult mouse was orally treated 1 hour before the trial with either vehicle or the test compound. The duration of active contacts of the adult mouse with the young mouse was manually recorded over a period of 3 min, including the following behavioural, approach-related items: sniffing, nosing, grooming, licking, pawing and playing, anogenital exploration and orientation toward the young mouse; orientation, thereby, was defined as tip of nose of the adult mouse less than approximately 1 cm distant from the young mouse's body.
Twenty-four hours after the baseline-test, the adults in each treatment group were confronted again with […] the half of the adult animals were put together with the previously encountered (familiar) partner and the other half with another (unfamiliar) young mouse. Again the duration of active approach-behaviours was recorded during a 3-min period. Prior to re-test no oral injection was given.
In the table the reduction in time scrutinizing the familiar partner at time 24 compared with the familiar partner at time 0 minutes is given (value of zero would signify no reduction).

human α7-nAChR = biological target: T2, human α7-nAChR (Homo sapiens, UniProt P36544); test: functional assay, calcium influx (FLIPR) in GH3 cells recombinantly expressing human α7-nAChR; format: cell-based; settings: for α7-nAChR activity Efficacy compared to epibatidine (100%): Emax, maximal effect compared to the epibatidine response
T2 construct: expressed in transfected cells; host or cells: GH3 cells (rat pituitary cell line)
T2 sequence (P36544 23-502): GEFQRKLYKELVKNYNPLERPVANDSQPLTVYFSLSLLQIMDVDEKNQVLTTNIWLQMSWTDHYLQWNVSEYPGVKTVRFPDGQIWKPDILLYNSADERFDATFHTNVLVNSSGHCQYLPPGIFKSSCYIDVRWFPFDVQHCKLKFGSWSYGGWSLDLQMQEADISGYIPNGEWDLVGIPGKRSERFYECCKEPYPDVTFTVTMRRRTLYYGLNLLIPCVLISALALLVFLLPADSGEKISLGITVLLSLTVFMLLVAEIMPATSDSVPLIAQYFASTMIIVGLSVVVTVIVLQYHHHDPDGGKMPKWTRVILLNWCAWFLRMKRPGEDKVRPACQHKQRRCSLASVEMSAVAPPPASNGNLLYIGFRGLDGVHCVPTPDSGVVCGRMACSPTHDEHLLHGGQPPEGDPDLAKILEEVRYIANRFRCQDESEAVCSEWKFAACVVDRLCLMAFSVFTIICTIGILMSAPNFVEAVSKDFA
Description: To assess α7-nAChR activity, a functional assay was employed using GH3 cells that recombinantly expressed human α7-nAChR. 50000 cells per well were seeded 72 h prior to the experiment on black 96-well plates (Costar) and incubated at 37° C. in a humidified atmosphere (5% CO2/95% air). On the day of the experiment, medium was removed by flicking the plates and replaced with 100 μl growth medium containing […] Fluo-4, (Molecular Probes) in the presence of 2.5 mM probenecid (Sigma). The cells were incubated at 37° C. in a humidified atmosphere (5% CO2/95% air) for 1 h. Plates were flicked to remove excess of Fluo-4, washed twice with Hepes-buffered salt solution (in mM: NaCl 130, KCl 5.4, CaCl2 2, MgSO4 0.8, NaH2PO4 0.9, glucose 25, Hepes 20, pH 7.4; HBS) and refilled with 100 μl of HBS containing antagonist when appropriate. The incubation in the presence of the antagonist lasted 3-5 minutes. Plates were placed in the cell plate stage of a FLIPR device (fluorescent imaging plate reader, Molecular Devices, Sunnyvale, Calif., USA). After recording of the baseline (laser: excitation 488 nm at 1 W, CCD camera opening of 0.4 seconds) the agonists (50 μl) were added to the cell plate using the FLIPR 96-tip pipettor while simultaneously recording the fluorescence.
Calcium kinetic data were normalized to the maximal fitted response induced by epibatidine, which is a full agonist at α7-nAChR. Four parameter Hill equations were fitted to the concentration-response. Values of Emax (maximal effect in % compared to the epibatidine response) and EC50 (concentration producing half the maximal effect in μM) were derived from this fit.

parkinsonian primates = test: Assessment of antidyskinetic effect in parkinsonian primates (MPTP, levodopa-induced dyskinesia); format: in vivo, cynomolgus monkeys (Macaca fascicularis); settings: for Duration of Levodopa-Response / Mean Dyskinesia Score (total period): five MPTP monkeys
Description: Female ovariectomized cynomolgus monkeys (Macaca fascicularis) are used in the assessment. The animals can be rendered parkinsonian by continuous infusion of 1-methyl-4-phenyl-1,2,3,6-tetrahydropyridine (MPTP) until they develop a stable parkinsonian syndrome. After recuperation, animals are treated daily with levodopa until clear and reproducible dyskinesias are developed.
Monkeys are observed through a one-way screen window in their home cage. They are observed and scored repeatedly at baseline and after a standard s.c. dose of levodopa. Locomotor activity is assessed and followed with an electronic monitoring system. Antiparkinsonian responses are evaluated by measuring the locomotor activity and a Parkinson disability scale (see Hadj Tahar A et al, Clin Neuropharmacol 2000; 23:195-202; and Samadi P et al, Neuropharmacology 2003; 45:954-963). Dyskinesias are closely monitored and scored according to a dyskinesia rating scale (also described in Hadj Tahar A et al; and Samadi P et al) every 15 minutes until the end of the effect. The doses of levodopa are chosen to induce motor activation and reproducible dyskinesia but no excessive agitation.
Monkeys are observed for at least two hours following an oral administration of vehicle. On a subsequent day, the dose of levodopa selected is tested once. The animals are observed (with measures of parkinsonian and dyskinetic scores) for the entire duration of the levodopa effect and are also monitored for locomotor activity. This provides vehicle control values as well as levodopa antiparkinsonian and dyskinesia response data for comparison with combinations of a α7-nAChR agonist/positive allosteric modulator and levodopa. The monkeys are then tested with a α7-nAChR agonist/positive allosteric modulator in combination with a fixed dose of levodopa. A suspension for oral administration of the α7-nAChR agonist/positive allosteric modulator is administered before levodopa. After each dose, the animals are observed (with measures of parkinsonian and dyskinetic scores) for the entire duration of effect and monitored for locomotor activity or any change in behavior (e.g. circling, excitement, lethargy and sleepiness).
Using this protocol, compound A-1 at a dose of 20 mg/kg was tested. Results based on five monkeys (levodopa/benserazide doses: 22.5/50 mg; 65/50 mg; 30/50 mg; 35/50 mg; and 25/50 mg) are shown in FIGS. 1-4.

[3] = MPTP monkeys, A-1 20 mg/kg plus levodopa/benserazide, result in words
[4] = compound A-1 20 mg/kg oral before levodopa/benserazide
[5] = levodopa/benserazide without compound A-1

Compound	fold selectivity [1] [fold]	Brain (pmoles/g ± SD) ([2]; 0.25 hour) [pmol/g]	Brain (pmoles/g ± SD) ([2]; 0.5 hour) [pmol/g]	Brain (pmoles/g ± SD) ([2]; 1 hour) [pmol/g]	Brain (pmoles/g ± SD) ([2]; 2 hour) [pmol/g]	Brain (pmoles/g ± SD) ([2]; 4 hour) [pmol/g]	Brain (pmoles/g ± SD) ([2]; 8 hour) [pmol/g]	Brain (pmoles/g ± SD) ([2]; 24 hour) [pmol/g]	Reduction in time scrutinizing in % ± SEM at 24 h (mice; dose 0.3 mg/kg) [%]	α7-nAChR activity Efficacy compared to epibatidine (100%) (human α7-nAChR) [%]	further results
C[C@H]1[C@H](Oc2ccc(-c3ccc4[nH]ccc4c3)nn2)C2CCN1CC2 [B-13, (2S,3R)-3-[6-(1H-indol-5-yl)-pyridazin-3-yloxy]-2-methyl-1-aza-bicyclo[2.2.2]octane]	324	1884 ± 291	2960 ± 706	2940 ± 335	1260 ± 172	379 ± 134	93 ± 30	13 ± 4	37 ± 7	89	Plasma (pmoles/ml ± SD) ([2]; 0.25 hour): 2196 ± 397 pmol/mL; Plasma (pmoles/ml ± SD) ([2]; 0.5 hour): 2265 ± 419 pmol/mL; Plasma (pmoles/ml ± SD) ([2]; 1 hour): 1554 ± 523 pmol/mL; Plasma (pmoles/ml ± SD) ([2]; 2 hour): 1172 ± 252 pmol/mL; Plasma (pmoles/ml ± SD) ([2]; 4 hour): 429 ± 167 pmol/mL; Plasma (pmoles/ml ± SD) ([2]; 8 hour): 80 ± 23 pmol/mL
c1cc2cc(-c3cnc(O[C@H]4CCN5CCC[C@@H]4C5)nc3)ccc2[nH]1 [C-1, (4S,5R)-4-[5-(1H-indol-5-yl)-pyrimidin-2-yloxy]-1-aza-bicyclo[3.3.1]nonane]	388	620 ± 221	1405 ± 539	1458 ± 189	1478 ± 259	842 ± 187	362 ± 62		51 ± 3	84	
C[C@H](OC(=O)N[C@@H]1CN2CCC1CC2)c1ccccc1F [A-1, (S)-(1-aza-bicyclo[2.2.2]oct-3-yl)-carbamic acid (S)-1-(2-fluoro-phenyl)-ethyl ester]	234		706.3 ± 153.4	573.7 ± 109.3	191.9 ± 34.9	104.6 ± 39.6		9.1 ± 2.7		83	Brain (pmoles/g ± SD) ([2]; 6 hour): 40.5 ± 12.1 pmol/g; antiparkinsonian activity of levodopa (antiparkinsonian score) (parkinsonian primates; [3]): does not lower; duration of the antiparkinsonian activity of levodopa (parkinsonian primates; [3]): significantly increases; levodopa-induced dyskinesias (parkinsonian primates; [3]): significantly reduces; onset of action of levodopa (Elapsed Time after Levodopa Administration) (parkinsonian primates; [3]): does not delay; Duration of Levodopa-Response (parkinsonian primates; [4]): 265 min; Mean Dyskinesia Score (total period) (parkinsonian primates; [4]): 2.1; Reduction in time scrutinizing in % ± SEM at 24 h (mice; dose 3 mg/kg): 52 ± 4%; pEC50 (human α7-nAChR; read-out: α7-nAChR activity Potency EC50): 7.00
N[C@@H](Cc1ccc(O)c(O)c1)C(=O)O [levodopa, reference compound]											Duration of Levodopa-Response (parkinsonian primates; [5]): 230 min; Mean Dyskinesia Score (total period) (parkinsonian primates; [5]): 2.8
